Measured values: patent US20060216266A1, “Absorbable alpha-cyanoacrylate compositions” (priority 2005, published 2006)

Assays:
[1] = Lap shear testing using pig skin; conditions: 1/2" x 1" overlap, about 100 μl adhesive, cure 20~30 min, Instron pulling rate 5 mm/min, about 10 joints
Method: General Procedure for Lap Shear Testing Using Pig Skin
Fresh pig skin was harvested from the back of the pig within 5 hours post sacrifice. The hair was removed by trimming and shaving to expose a smooth skin surface. The fat attached to the inside skin surface was trimmed away. The skin was cut into 2″×1″ coupons and covered by saline moist paper towel before use.
The external surface of the skin was used as bonding surface to prepare the lap shear joint samples.
The coupons were patted dry prior to forming the lap shear joint. About 1 00 μl of adhesive was deposited to one coupon within ½″ from the nearer end and smoothed to cover a ½″×1″ area (FIG. 1). The other coupon was placed over the area of the coupon with applied adhesive to form an overlap of ½″×1″. A 1 lb weight was placed on top of the overlap area. The joint was allowed to cure for 20˜30 min and the strength of the joint was tested as described below.
The strength of the cured joint was tested using an Instron (Model 5544) with a pulling rate of 5 mm/min. The maximum load for the joint to fail was recorded.
Typically, about 10 joint samples were tested for each adhesive.

[2] = Bonding of two moist fingertips by monomer; conditions: very small amount of monomer placed between two moist fingertips
[3] = Glass transition temperature of polymer film; type: physicochemical; conditions: adhesive polymer formed from the monomer
Method: A 1″×1″ Prolene mesh (Ethicon, Inc.) was briefly rinsed with 0.5% wt NaHCO3 aqueous solution and patted dry. The mesh was placed on a freshly prepared Agar plate in a petri dish and about 100 mg of monomer adhesive was applied and spread evenly across the mesh. The monomer adhesive was allowed to cure completely overnight with the petri dish covered and sealed with parafilm. The fully cured polymer film formed over the mesh was removed and rinsed with deionized water to remove any Agar attached and patted dry with paper towel. The thickness of the polymer film was about 0.6 mm.

SMILES: C=C(C#N)C(=O)OC(C)C(=O)OCCCC (centres unmarked) [Bu-Lac-CA, 2-Cyano-acrylic acid 1-butoxycarbonyl-ethyl ester, reference compound]
- Load (maximum load for the lap shear joint to fail) [1]: 4.96 ± 0.67 Ib
- Bonding of fingertips [2]: bonded the fingertips strongly within one minute
- Glass Transition Temperature (Tg, ° C.) [3]: 52 °C

SMILES: C=C(C#N)C(=O)OC(CCCC)C(=O)OCC (stereo not drawn) [Et-α-CPL-CA, 2-(2-Cyano-acryloyloxy)-hexanoic acid ethyl ester]
- Load (maximum load for the lap shear joint to fail) [1]: 1.26 ± 0.29 Ib

SMILES: C=C(C#N)C(=O)OC(CCC)CC(=O)OCC (stereo not drawn) [Et-β-CPL-CA, 3-(2-Cyano-acryloyloxy)-hexanoic acid ethyl ester]
- Load (maximum load for the lap shear joint to fail) [1]: 4.49 ± 0.68 Ib
- Bonding of fingertips [2]: bonded the fingertips strongly within one minute
- Glass Transition Temperature (Tg, ° C.) [3]: −11 °C

SMILES: C=C(C#N)C(=O)OC(C)CC(=O)OCC (stereo not drawn) [Et-β-HBT-CA, 3-(2-Cyano-acryloyloxy)-butyric acid ethyl ester]
- Load (maximum load for the lap shear joint to fail) [1]: 4.09 ± 0.48 Ib
- Bonding of fingertips [2]: bonded the fingertips strongly within one minute
- Glass Transition Temperature (Tg, ° C.) [3]: 32 °C

SMILES: C=C(C#N)C(=O)OCCCCCC(=O)OCC [Et-ε-CPL-CA, 6-(2-Cyano-acryloyloxy)-hexanoic acid ethyl ester]
- Load (maximum load for the lap shear joint to fail) [1]: 3.68 ± 0.64 Ib
